pIC50: −log10 of the molar value.
Molecular target: GST tagged IRAK-4 (Homo sapiens (Human), UniProt Q9NWZ3)
Test: IRAK-4 Kinase Assay (IMAP fluorescence polarization)
Assay type: biochemical
Details: 100 μM ATP, 30 minutes at 25° C.; for IC50: μM
Summary of the method: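 Activity was read by IMAP fluorescence polarization, where phosphopeptide binding to M(III) nanoparticles raises FP. The 30-minute, 25° C reaction used 100 μM ATP, 100 nM RP7030 substrate and 0.5 nM GST-IRAK-4 in pH 7.2 Tris buffer with MgCl2, DTT and Tween 20.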

Sequence of GST tagged IRAK-4 (Q9NWZ3 whole entry): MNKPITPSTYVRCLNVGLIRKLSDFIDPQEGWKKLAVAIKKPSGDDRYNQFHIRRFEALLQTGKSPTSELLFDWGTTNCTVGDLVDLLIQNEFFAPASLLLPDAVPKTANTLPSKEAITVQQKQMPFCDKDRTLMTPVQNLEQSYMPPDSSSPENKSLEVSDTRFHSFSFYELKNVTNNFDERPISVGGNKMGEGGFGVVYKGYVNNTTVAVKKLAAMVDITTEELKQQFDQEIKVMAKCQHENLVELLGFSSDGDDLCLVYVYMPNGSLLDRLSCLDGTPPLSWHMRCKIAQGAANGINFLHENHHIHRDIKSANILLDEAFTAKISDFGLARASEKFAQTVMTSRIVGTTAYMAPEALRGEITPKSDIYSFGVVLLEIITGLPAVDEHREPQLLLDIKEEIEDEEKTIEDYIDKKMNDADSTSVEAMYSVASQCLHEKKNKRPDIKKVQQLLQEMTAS

Row | IC50 [µM] | pIC50 | SMILES
1 | < 1 | – | Cc1ccc(-n2nc(-c3cncc(CO)c3)cc2NC(=O)c2cnn3cccnc23)cc1 [Example 332, N-{3-[5-(hydroxymethyl)pyridin-3-yl]-1-(4-methylphenyl)-1H-pyrazol-5-yl}pyrazolo[1,5-a]pyrimidine-3-carboxamide]
2 | – | > 7.00 | Cc1ccc(-n2nc(-c3ccc(C(=O)N(C)C)cc3)cc2NC(=O)c2cnn3cccnc23)cc1 [Example 349, N-{3-[4-(dimethylcarbamoyl)phenyl]-1-(4-methylphenyl)-1H-pyrazol-5-yl}pyrazolo[1,5-a]pyrimidine-3-carboxamide]
3 | < 1 | – | Cc1ccc(-n2nc(C3CCC(N(C)C)CC3)cc2NC(=O)c2cnn3cccnc23)cc1 (centres unmarked) [Example 5, N-(3-(4-(dimethylamino)cyclohexyl)-1-(p-tolyl)-1,4-pyrazol-5-yl)pyrazolo[1,5-a]pyrimidine-3-carboxamide]
4 | – | > 7.00 | Cc1ccc(-n2nc(C3CCN(C(=O)C4(O)CCC4)CC3)cc2NC(=O)c2cnn3cc(Br)cnc23)cc1 [Example 116, 6-bromo-N-(3-(1-(1-hydroxycyclobutanecarbonyl)piperidin-4-yl)-1-(p-tolyl)-1H-pyrazol-5-yl)pyrazolo[1,5-a]pyrimidine-3-carboxamide]
5 | < 1 | – | Cc1ccc(-n2nc(C3CCN(C(N)=O)CC3)cc2NC(=O)c2cnn3cccnc23)cc1 [Example 35, N-(3-(1-carbamoylpiperidin-4-yl)-1-(p-tolyl)-1H-pyrazol-5-yl)pyrazolo[1,5-a]pyrimidine-3-carboxamide]
6 | – | > 7.00 | Cc1ccc(-n2nc(C3CCN(C4CCC4)CC3)cc2NC(=O)c2cnn3cccnc23)cc1 [Example 38, N-(3-(1-cyclobutylpiperidin-4-yl)-1-(p-tolyl)-1H-pyrazol-5-yl)pyrazolo[1,5-a]pyrimidine-3-carboxamide]
7 | < 1 | – | Cc1ccc(-n2nc(-c3cnn(CCS(C)(=O)=O)c3)cc2NC(=O)c2cnn3cccnc23)cc1 [Example 333, N-{1-(4-methylphenyl)-1′-[2-(methylsulfonyl)ethyl]-1H,1′H-3,4′-bipyrazol-5-yl}pyrazolo[1,5-a]pyrimidine-3-carboxamide]
8 | > 1 | – | COc1ccc(-n2nc(C3CCN(S(=O)(=O)C(F)(F)F)CC3)cc2NC(=O)c2cnn3cccnc23)cc1 [Example 30, N-(1-(4-methoxyphenyl)-3-(1-((trifluoromethyl)sulfonyl)piperidin-4-yl)-1H-pyrazol-5-yl)pyrazolo[1,5-a]pyrimidine-3-carboxamide]
9 | – | > 7.00 | Cc1ccc(-n2nc(C3CCN(C4CCCC4)CC3)cc2NC(=O)c2cnn3cccnc23)cc1 [Example 325, N-(3-(1-cyclopentylpiperidin-4-yl)-1-(p-tolyl)-1H-pyrazol-5-yl)pyrazolo[1,5-a]pyrimidine-3-carboxamide]
10 | – | > 7.00 | CS(=O)(=O)N1CCC(c2cc(NC(=O)c3cnn4cccnc34)n(-c3ccc(C4CC4)cc3F)n2)CC1 [Example 73, N-(1-(4-cyclopropyl-2-fluorophenyl)-3-(1-(methylsulfonyl)piperidin-4-yl)-1H-pyrazol-5-yl)pyrazolo[1,5-a]pyrimidine-3-carboxamide]
11 | < 1 | – | Cc1ccc(-n2nc(C3CCN(Cc4ncco4)CC3)cc2NC(=O)c2cnn3cccnc23)cc1 [Example 232, N-{1-(4-methylphenyl)-3-[1-(1,3-oxazol-2-ylmethyl)piperidin-4-yl]-1H-pyrazol-5-yl}pyrazolo[1,5-a]pyrimidine-3-carboxamide]
12 | < 1 | – | Cc1ccc(-n2nc(C3CCC(=NO)CC3)cc2NC(=O)c2cnn3cccnc23)cc1 (centres unmarked) [Example 2, N-(3-(4-(hydroxyimino)cyclohexyl)-1-(p-tolyl)-1H-pyrazol-5-yl)pyrazolo[1,5-a]pyrimidine-3-carboxamide]
13 | < 1 | – | Cc1ccc(-n2nc(-c3ccnn3C)cc2NC(=O)c2cnn3cccnc23)cc1 [Example 331, N-[2′-methyl-1-(4-methylphenyl)-1H,2′H-3,3′-bipyrazol-5-yl]pyrazolo[1,5-a]pyrimidine-3-carboxamide]
14 | < 1 | – | Cc1ccc(-n2nc(C3CCN(S(=O)(=O)c4cccc5cccnc45)CC3)cc2NC(=O)c2cnn3cccnc23)cc1 [Example 396, N-{1-(4-methylphenyl)-3-[1-(quinolin-8-ylsulfonyl)piperidin-4-yl]-1H-pyrazol-5-yl}pyrazolo[1,5-a]pyrimidine-3-carboxamide]
15 | – | > 7.00 | Cc1ccc(-n2nc(C3CCN(S(C)(=O)=O)CC3)cc2NC(=O)c2cnn3cccnc23)nc1 [Example 153, N-(1-(5-methylpyridin-2-yl)-3-(1-(methylsulfonyl)piperidin-4-yl)-1H-pyrazol-5-yl)pyrazolo[1,5-a]pyrimidine-3-carboxamide]
16 | < 1 | – | Cc1ccc(-n2nc(C3CCN(C(=O)C4CN(C)CCO4)CC3)cc2NC(=O)c2cnn3cc(Br)cnc23)cc1 (centres unmarked) [Example 117, 6-bromo-N-(3-(1-(4-methylmorpholine-2-carbonyl)piperidin-4-yl)-1-(p-tolyl)-1H-pyrazol-5-yl)pyrazolo[1,5-a]pyrimidine-3-carboxamide]

Row | IC50 [µM] | pIC50 | SMILES
17 | – | > 7.00 | CC1(c2cc(NC(=O)c3cnn4cccnc34)n(-c3ccc(CN)cn3)n2)CC1 [Example 176, N-(1-(5-(aminomethyl)pyridin-2-yl)-3-(1-methylcyclopropyl)-1H-pyrazol-5-yl)pyrazolo[1,5-a]pyrimidine-3-carboxamide]
18 | < 1 | – | COc1ccc(S(=O)(=O)N2CCC(c3cc(NC(=O)c4cnn5cccnc45)n(-c4ccc(C)cc4)n3)CC2)cc1 [Example 367, N-[3-{1-[(4-methoxyphenyl)sulfonyl]piperidin-4-yl}-1-(4-methylphenyl)-1H-pyrazol-5-yl]pyrazolo[1,5-a]pyrimidine-3-carboxamide]
19 | – | > 7.00 | Cc1ccc(-n2nc(C3CCN(S(=O)(=O)C(C)C)CC3)cc2NC(=O)c2cnn3cccnc23)cc1 [Example 368, N-[3-{1-[(1-methylethyl)sulfonyl]piperidin-4-yl}-1-(4-methylphenyl)-1H-pyrazol-5-yl]pyrazolo[1,5-a]pyrimidine-3-carboxamide]
20 | – | > 7.00 | COc1cccc(CN2CC(c3cc(NC(=O)c4cnn5cccnc45)n(-c4ccc(C)cc4)n3)C2)n1 [Example 315, N-[3-{1-[(6-methoxypyridin-2-yl)methyl]azetidin-3-yl}-1-(4-methylphenyl)-1H-pyrazol-5-yl]pyrazolo pyrimidine-3-carboxamide]
21 | < 1 | – | CCNC(=O)N1CC(N2CCC(c3cc(NC(=O)c4cnn5cccnc45)n(-c4ccc(C)cc4)n3)CC2)C1 [Example 237, N-[3-{1-[1-(ethylcarbamoyl)azetidin-3-yl]piperidin-4-yl}-1-(4-methylphenyl)-1H-pyrazol-5-yl]pyrazolo[1,5-a]pyrimidine-3-carboxamide]
22 | < 1 | – | Cc1ccc(-n2nc(C3CCN(S(=O)(=O)Cc4ccccc4)CC3)cc2NC(=O)c2cnn3cccnc23)cc1 [Example 387, N-{3-[1-(benzylsulfonyl)piperidin-4-yl]-1-(4-methylphenyl)-1H-pyrazol-5-yl}pyrazolo[1,5-a]pyrimidine-3-carboxamide]
23 | < 1 | – | COc1cc(-c2cc(NC(=O)c3cnn4cccnc34)n(-c3ccc(C)cc3)n2)ccn1 [Example 129, N-(3-(2-methoxypyridin-4-yl)-1-(p-tolyl)-1H-pyrazol-5-yl)pyrazolo[1,5-a]pyrimidine-3-carboxamide]
24 | – | > 7.00 | COc1ccc(-n2nc(C3CCN(S(=O)(=O)C(C)C)CC3)cc2NC(=O)c2cnn3cccnc23)cc1 [Example 23, N-(3-(1-(isopropylsulfonyl)piperidin-4-yl)-1-(4-methoxyphenyl)-1H-pyrazol-5-yl)pyrazolo[1,5-a]pyrimidine-3-carboxamide]
25 | – | > 7.00 | Cc1ccc(-n2nc(C3CCN(C(=O)CCN(C)C)CC3)cc2NC(=O)c2cnn3cc(Br)cnc23)cc1 [Example 113, 6-bromo-N-(3-(1-(3-(dimethylamino)propanoyl)piperidin-4-yl)-1-(p-tolyl)-1H-pyrazol-5-yl)pyrazolo[1,5-a]pyrimidine-3-carboxamide]
26 | > 1 | – | Cc1ccc(-n2nc(C3CCC(C(=O)O)CC3)cc2NC(=O)c2cnn3cccnc23)cc1 (centres unmarked) [Example 94, 4-(5-(pyrazolo[1,5-a]pyrimidine-3-carboxamido)-1-(p-tolyl)-1H-pyrazol-3-yl)cyclohexanecarboxylic acid]
27 | < 1 | – | Cc1ccc(-n2nc(C3(C)CCNCC3)cc2NC(=O)c2cnn3cccnc23)cc1 [Example 91, N-(3-(4-methylpiperidin-4-yl)-1-(p-tolyl)-1H-pyrazol-5-yl)pyrazolo[1,5-a]pyrimidine-3-carboxamide]
28 | – | > 7.00 | CCS(=O)(=O)c1ccc(-c2cc(NC(=O)c3cnn4cccnc34)n(-c3ccc(C)cc3)n2)cc1 [Example 352, N-{3-[4-(ethylsulfonyl)phenyl]-1-(4-methylphenyl)-1H-pyrazol-5-yl}pyrazolo[1,5-a]pyrimidine-3-carboxamide]
29 | < 1 | – | CON=C1CCC(c2cc(NC(=O)c3cnn4cccnc34)n(-c3ccc(C)cc3)n2)CC1 (centres unmarked) [Example 3, N-(3-(4-(methoxyimino)cyclohexyl)-1-(p-tolyl)-1H-pyrazol-5-yl)pyrazolo[1,5-a]pyrimidine-3-carboxamide]
30 | < 1 | – | Cc1ccc(-n2nc(C3CCN(S(=O)(=O)c4ccccc4C#N)CC3)cc2NC(=O)c2cnn3cccnc23)cc1 [Example 362, N-[3-{1-[(2-cyanophenyl)sulfonyl]piperidin-4-yl}-1-(4-methylphenyl)-1H-pyrazol-5-yl]pyrazolo[1,5-a]pyrimidine-3-carboxamide]
31 | – | > 7.00 | Cc1ccc(-n2nc(N3CCN(C)CC3)cc2NC(=O)c2cnn3cccnc23)nc1 [Example 197, N-(3-(4-methylpiperazin-1-yl)-1-(5-methylpyridin-2-yl)-1H-pyrazol-5-yl)pyrazolo[1,5-a]pyrimidine-3-carboxamide]
32 | < 1 | – | Cc1ccc(-n2nc(C3CCN(S(=O)(=O)c4cccc(C(F)(F)F)n4)CC3)cc2NC(=O)c2cnn3cccnc23)cc1 [Example 394, N-[1-(4-methylphenyl)-3-(1-{[6-(trifluoromethyl)pyridin-2-yl]sulfonyl}piperidin-4-yl)-1H-pyrazol-5-yl]pyrazolo[1,5-a]pyrimidine-3-carboxamide]
